From US20240158348A1, “HERBICIDAL CYCLIC AMIDES N-SUBSTITUTED WITH A HALOALKYLSULFONYLANILIDE GROUP” (FMC Corporation, priority 2021, published 2024)

How the values were obtained:
Assay type in all cases: in vivo
[1] = test system: barnyardgrass (Echinochloa crusgalli); assay: Test D flooded paddy test, barnyardgrass; parameters: key: 0 = no effect, 100 = complete control; conditions: 250 g ai/ha, Flood; applied to paddy water at 2-leaf stage; visual rating after 13 days; scale 0 (no effect) to 100 (complete control)
Summary of the method: (§1)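 2-leaf plants; flood 3 cm over soil; cpd into paddy water; depth maintained; greenhouse 13 d; visual rating vs controls, 0 = no effect, 100 = complete control; dash = no result.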

[2] = test system: ragweed (common ragweed, Ambrosia artemisiifolia); assay: Test C postemergence, ragweed; conditions: for Ragweed plant response rating: visual injury, 0 to 100 scale (0 no effect, 100 complete control); for Plant response rating (0 to 100 scale), Ragweed: 0 is no effect, 100 is complete control
Summary of the method: (§2)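 Pre: soil sprayed at seeding. Post: seedlings treated at 1–2 leaves (2–10 cm). Vehicle non-phytotoxic solvent mix with surfactant; loam–sand medium; greenhouse; visual injury read at 10 or 12 days, scale 0–100.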

[3] = test system: ryegrass, Italian (Italian ryegrass, Lolium multiflorum); assay: Test C preemergence, Italian ryegrass; conditions: 0 is no effect, 100 is complete control
Summary of the method: as §2

kochia (Bassia scoparia) = assay: Test C preemergence, kochia; conditions: 0 is no effect, 100 is complete control
Summary of the method: as §2

[4] = test system: blackgrass (Alopecurus myosuroides); assay: Test C preemergence, blackgrass; conditions: 0 is no effect, 100 is complete control
Summary of the method: as §2

[5] = test system: sedge, umbrella (small-flower umbrella sedge, Cyperus difformis); assay: Test D flooded paddy test, umbrella sedge; parameters: key: 0 = no effect, 100 = complete control; conditions: 250 g ai/ha, Flood; applied to paddy water at 2-leaf stage; visual rating after 13 days; scale 0 (no effect) to 100 (complete control)
Summary of the method: as §1

[6] = test system: foxtail, giant (giant foxtail, Setaria faberi); assay: Test C postemergence, giant foxtail; conditions: for Foxtail, Giant plant response rating: visual injury, 0 to 100 scale (0 no effect, 100 complete control); for Plant response rating (0 to 100 scale), Foxtail, Giant: 0 is no effect, 100 is complete control
[7] = test system: oat, wild (wild oat, Avena fatua); assay: Test C preemergence, wild oat; conditions: 0 is no effect, 100 is complete control
Summary of the method: as §2

corn (Zea mays) = assay: Test C postemergence, corn; conditions: for Corn plant response rating: visual injury, 0 to 100 scale (0 no effect, 100 complete control); for Plant response rating (0 to 100 scale), Corn: 0 is no effect, 100 is complete control

| Compound | Plant response rating, Barnyardgrass [1] | Ragweed plant response rating ([2]; 31 g ai/ha Postemergence) | Ragweed plant response rating ([2]; 125 g ai/ha Postemergence) | Plant response rating (0 to 100 scale), Ryegrass, Italian ([3]; 31 g ai/ha Preemergence) | Plant response rating (0 to 100 scale), Ryegrass, Italian ([3]; 125 g ai/ha Preemergence) | Plant response rating (0 to 100 scale), Kochia (kochia (Bassia scoparia); 31 g ai/ha Preemergence) | Plant response rating (0 to 100 scale), Kochia (kochia (Bassia scoparia); 125 g ai/ha Preemergence) | Plant response rating (0 to 100 scale), Blackgrass ([4]; 31 g ai/ha Preemergence) | Plant response rating (0 to 100 scale), Blackgrass ([4]; 125 g ai/ha Preemergence) | Plant response rating, Sedge, Umbrella [5] | Foxtail, Giant plant response rating ([6]; 31 g ai/ha Postemergence) | Plant response rating (0 to 100 scale), Foxtail, Giant ([6]; 125 g ai/ha Postemergence) | Plant response rating (0 to 100 scale), Oat, Wild ([7]; 31 g ai/ha Preemergence) | Plant response rating (0 to 100 scale), Oat, Wild ([7]; 125 g ai/ha Preemergence) | Corn plant response rating (corn (Zea mays); 31 g ai/ha Postemergence) | Plant response rating (0 to 100 scale), Corn (corn (Zea mays); 125 g ai/ha Postemergence) | Plant response rating (0 to 100 scale), Ragweed ([2]; 125 g ai/ha Postemergence) | Foxtail, Giant plant response rating ([6]; 125 g ai/ha Postemergence) | Corn plant response rating (corn (Zea mays); 125 g ai/ha Postemergence) |
| --- | --- | --- | --- | --- | --- | --- | --- | --- | --- | --- | --- | --- | --- | --- | --- | --- | --- | --- | --- |
| Cc1cc(C)c(N2CCC(OC3CC3)C2=O)cc1NS(=O)(=O)C(F)(F)F (single isomer, unassigned) [Compound 29] | 95 | 60 | 80 | 100 | 100 | 90 | 100 | 90 | 90 | 95 | 90 | 90 | 90 | 90 | 80 | 90 |  |  |  |
| Cc1cc(C)c(N2CCC(OC3CC3)C2=O)cc1NS(=O)(=O)C(F)(F)F (single isomer, unassigned) [Compound 30] | 95 | 90 | 90 | 100 | 100 | 90 | 100 | 80 | 100 | 98 | 50 | 80 | 80 | 100 | 90 | 90 |  |  |  |
| CO/N=C1\CCN(c2cc(NS(=O)(=O)C(F)(F)F)c(C)cc2C)C1=O [Compound 9, 1,1,1-trifluoro-N-[5-[3-(methoxyimino)-2-oxo-1-pyrrolidinyl]-2,4-dimethylphenyl]methanesulfonamide] | 10 | 70 |  | 60 | 100 | 100 | 100 |  |  | 85 | 40 | 90 | 90 | 100 | 90 | 90 | 80 |  |  |
| Cc1cc(C)c(N2CC/C(=N\O)C2=O)cc1NS(=O)(=O)C(F)(F)F [Compound 10, 1,1,1-trifluoro-N-[5-[3-(hydroxyimino)-2-oxo-1-pyrrolidinyl]-2,4-dimethylphenyl]methanesulfonamide] | 0 | 50 |  | 50 | 100 | 90 | 100 |  |  | 80 | 40 | 90 | 90 | 100 | 90 | 90 | 50 |  |  |
| Cc1c(NS(=O)(=O)C(F)(F)F)cc(N2CCC(OC3CC3)C2=O)c(C)c1C (stereo not drawn) [Compound 47] | 75 | 60 | 80 | 50 | 90 | 70 | 100 |  |  | 95 | 70 |  | 80 | 100 | 70 |  |  | 90 | 90 |
| Cc1c(N2CCC(OC3CCC3)C2=O)cc(N(C(=O)OCC(C)C)S(=O)(=O)C(F)(F)F)c(C)c1C (stereo not drawn) [Compound 48] | 80 | 30 | 80 | 60 | 100 | 10 | 90 |  |  | 90 | 20 |  | 50 | 80 | 0 |  |  | 60 | 50 |
| Cc1c(N2CCC(OC3CC3)C2=O)cc(N(COC(=O)C(C)(C)C)S(=O)(=O)C(F)(F)F)c(C)c1C (stereo not drawn) [Compound 49] | 100 | 70 | 90 | 40 | 100 | 30 | 70 |  |  | 90 | 60 |  | 60 | 90 | 50 |  |  | 90 | 100 |
| Cc1cc(C)c(N2CCC(OCC3CCC3(F)F)C2=O)cc1NS(=O)(=O)C(F)(F)F (stereo not drawn) [Compound 52] | 20 | 40 | 70 | 0 | 80 | 70 | 100 |  |  | 80 | 0 |  | 20 | 90 | 0 |  |  | 50 | 60 |
| Cc1cc(C)c(N(COC(=O)C(C)(C)C)S(=O)(=O)C(F)(F)F)cc1N1CCC(OCC2CC2(F)F)C1=O (stereo not drawn) [Compound 54] | 45 | 50 | 80 | 0 | 90 | 0 | 30 |  |  | 98 | 30 |  | 0 | 80 | 0 |  |  | 70 | 80 |
| Cc1cc(C)c(N(COC(=O)C(C)(C)C)S(=O)(=O)C(F)(F)F)cc1N1CCC(OCC2CC(F)(F)C2)C1=O (stereo not drawn) [Compound 55] | 50 | 50 | 80 | 20 | 60 | 0 | 10 |  |  | 95 | 30 |  | 0 | 20 | 0 |  |  | 70 | 70 |
